This note sets out measurements from patent US12076307B2, “Compositions for prevention or treatment of acute radiation syndrome and other radiation exposure” (priority 2017, dated 2024).

As a reminder, the NOAEL is the highest tested level that showed no adverse finding. Usually fraction unbound stands for free concentration divided by total concentration. A high value points to much free substance. For orientation: pIC50 means the IC50 on a negative log10 scale, so that one unit is a factor of ten.

Series [1] concerns RIPK1/3-MLKL-mediated necroptosis pathway. Description: Necroptosis signaling and DAMP release in HaCaT cells treated with CM or rhHMGB1. The class given is cell-based, human. The protocol:
An additional experiment was tested for assessing whether EC-18 treatment leads to early termination of the RIPK1/3-MLKL-mediated downstream necroptosis pathway. This was performed by using DAMP-containing conditioned media (CM) harvested from HaCaT cells, irradiated for 48 hrs, and analyzed after 2 or 72 hrs of EC-18 treatment. […] To further confirm that DAMPs in CM contribute to the activation of a necroptosis signaling pathway in a paracrine manner, recombinant human HMGB1 (rhHMGB1) was treated directly to the normal HaCaT cells. The rhHMGB1 elevated the phosphorylation of RIPK1/3 and MLKL after 2 hrs and subsequently released HMGB1 and HSP90 (FIGS. 35C-35D). To evaluate whether EC-18 mitigates the activation of RIPK1/3 and MLKL, 10 or 100 μg/mL of EC-18 was treated before the addition of CM or rhHMGB1. As a result, EC-18 lowered the phosphorylation of RIPK/3 and MLKL in both CM- and rhHMGB1-treated cells after 2 hrs. Release of HMGB1 and Hsp90 was also subsided by EC-18 after 72 hrs of post addition of CM or rhHMGB1 to the cells (FIGS. 35A-35D). TLR4-induced necroptosis signaling pathway caused by DAMP release produces cytokines, such as CXCL8, a chemotactic cytokine for neutrophils. As CXCL8 increases upon tissue damage, it was measured in cells treated with CM or rhHMGB1 as a measure of inflammation. […]

A short description of series [2]: Embryo-fetal developmental toxicity study, NZW rabbit. The class given is in vivo. The note with it: NZW, rabbit, in vivo; definitive study; Oral 13 days. The source says:
(§1) Various toxicology studies have been performed. All studies were GLP-compliant unless otherwise noted.

A further series has as its system NZW rabbit. The series is described as above. Format: in vivo. The note with it: Oral 13 days.
Description: as §1

Series [3] can be described thus: In vitro metabolic stability / metabolite screening, statements over all species. The class given is in vitro ADME, rat, dog, monkey, human. The protocol:
[^14C]EC-18 or the positive control (7-ethoxycoumarin; 7-EC) reacted with microsomes prepared from hepatocytes of rats, dogs, monkeys, and humans, with or without cofactors, for 60 and 120 min. Then, the residual EC-18 concentration over time was measured by LC-RID ([^14C]EC-18) or LC-MS/MS (7-EC) (FIG. 63 and FIG. 64).
The LC-RID chromatographic profiles of radioactive metabolites produced in the 2-hr incubation reaction mixtures of the same test systems A, B, and C used to assess the metabolic and non-metabolic elimination rates of EC-18 were compared to the LC-UV chromatographic profiles of the synthetic reference material. […] The relative radioactivity of EC-18 accounted for 42-67% of total radioactivity. The peaks designated as M2, M3, and M5 were also determined in all species, and their relative radioactivity accounted for 12-34% of total radioactivity. The peaks of M4 and M6 were determined in monkeys and humans. M1 was abundantly detected in all species, but it was assumed to be a peak of early elution. The LC-UV chromatograms of reaction mixtures in each test system (FIGS. 65A-65C) and the relative radioactivity of the screened metabolites are shown in Table 25.

A short description of series [4]: Plasma protein binding by rapid equilibrium dialysis, rat. The note with it: Rats, 4 hrs RED, n=3. The protocol:
The plasma protein binding ability of EC-18 was tested by rapid equilibrium dialysis (RED). The chamber separated by a dialysis tubing membrane (cut-off: 8 kDa) was filled on one side with rat or human plasma mixed with phosphate buffer and on the other side with rat or human plasma mixed with the test or standard reference material (test concentration: 1 μM).
A general note: In equilibrium dialysis free small molecules cross a membrane that holds back macromolecules.

The test system of series [5] is Pseudomonas aeruginosa K (PAK). The experiment in a line: Co-culture of bone marrow-derived monocytes with PAK, CFU. The conditions noted are these: 100 μg/mL 1 hr; PAK MOI 50. The class given is cell-based. How it is done:
Structural-Activity Relationship Work of EC-18 To assess the optimal structure of EC-18, structural-activity relationship work was examined. A total of five structural analogs of EC-18 were selected by changing one fatty acid chain structure (red boxes in FIG. 43) and evaluated in bone marrow-derived monocytes co-cultured with Pseudomonas aeruginosa K (PAK). All analogs along with EC-18 were inoculated with PAK at the multiplicity of infection (MOI) of 50 for 30 mins and then, treated for 1 hr at the dosage of 100 μg/mL.
As a measure of […], the colony-forming units (CFUs) from each group were examined.

The test system of a further series is CYP3A4. The conditions noted are these: for Enzyme Activity CYP3A4: n=3. The protocol:
This test was performed to determine if EC-18 was capable of inducing CYP1A2 and CYP3A4 activities in human primary hepatocytes.

For another series, the target named is T1, OCT2 (Homo sapiens, UniProt O15244).
T1 construct: expressed in transfected cells; host or cells: HEK-293
T1 sequence (O15244 whole entry): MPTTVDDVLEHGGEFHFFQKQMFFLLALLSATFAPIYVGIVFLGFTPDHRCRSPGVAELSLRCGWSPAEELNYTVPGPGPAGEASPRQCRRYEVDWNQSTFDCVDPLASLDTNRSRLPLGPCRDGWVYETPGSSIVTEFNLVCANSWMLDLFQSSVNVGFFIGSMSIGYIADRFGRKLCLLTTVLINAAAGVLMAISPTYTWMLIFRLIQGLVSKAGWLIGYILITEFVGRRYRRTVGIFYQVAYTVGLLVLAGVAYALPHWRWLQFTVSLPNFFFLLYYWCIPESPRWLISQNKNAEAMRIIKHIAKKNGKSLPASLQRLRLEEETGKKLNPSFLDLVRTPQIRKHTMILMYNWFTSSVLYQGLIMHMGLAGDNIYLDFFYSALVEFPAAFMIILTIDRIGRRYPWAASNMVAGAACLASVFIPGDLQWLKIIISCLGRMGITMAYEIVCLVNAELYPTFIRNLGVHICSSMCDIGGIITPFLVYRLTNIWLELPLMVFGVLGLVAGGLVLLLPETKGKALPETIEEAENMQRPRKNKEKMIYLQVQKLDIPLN
The experiment in a line: Drug transporter inhibition, OCT2. Format: in vitro ADME. The conditions noted are these: 100 nM [3H] methyl-4-phenylpyridinium; transfected HEK-293 cells. The protocol:
This study examined the potential of EC-18 to interact with the transporter proteins that have been known to be involved in the absorption of commercially available drugs. EC-18 was pre-incubated with HEK-293 cells and LLC-PK1 cells that were transfected with the genes of most drug transporters as follows: OATP1B1, OATP1B3, OAT1, OAT3 and OCT2, and BCRP and P-gp, respectively.

The test system of a further series is CXCL8. The experiment in a line: CXCL8 release in HaCaT cells treated with CM or rhHMGB1. Format: cell-based, human. How it is done:
An additional experiment was tested for assessing whether EC-18 treatment leads to early termination of the RIPK1/3-MLKL-mediated downstream necroptosis pathway. This was performed by using DAMP-containing conditioned media (CM) harvested from HaCaT cells, irradiated for 48 hrs, and analyzed after 2 or 72 hrs of EC-18 treatment. […] To further confirm that DAMPs in CM contribute to the activation of a necroptosis signaling pathway in a paracrine manner, recombinant human HMGB1 (rhHMGB1) was treated directly to the normal HaCaT cells. The rhHMGB1 elevated the phosphorylation of RIPK1/3 and MLKL after 2 hrs and subsequently released HMGB1 and HSP90 (FIGS. 35C-35D). To evaluate whether EC-18 mitigates the activation of RIPK1/3 and MLKL, 10 or 100 μg/mL of EC-18 was treated before the addition of CM or rhHMGB1. As a result, EC-18 lowered the phosphorylation of RIPK/3 and MLKL in both CM- and rhHMGB1-treated cells after 2 hrs. Release of HMGB1 and Hsp90 was also subsided by EC-18 after 72 hrs of post addition of CM or rhHMGB1 to the cells (FIGS. 35A-35D). TLR4-induced necroptosis signaling pathway caused by DAMP release produces cytokines, such as CXCL8, a chemotactic cytokine for neutrophils. As CXCL8 increases upon tissue damage, it was measured in cells treated with CM or rhHMGB1 as a measure of inflammation. CXCL8 of CM from cells treated with chemo and radiotherapy was used for this evaluation. […] Moreover, rhHMGB1 increased the production of CXCL8, modulated by EC-18.

Series [6] concerns Chinese hamster lung cells (CHL/IU). Description: Chromosomal aberration test. The class given is cell-based. The note with it: 6 and 24 hrs; with or without metabolic activation.
Description: as §1

pIC50: −log10 of the molar value. Where two headings read alike, the source gives them in different places.

On to `CCCCC/C=C\C/C=C\CCCCCCCC(=O)OC(COC(C)=O)COC(=O)CCCCCCCCCCCCCCC` (stereo not drawn) [EC-18, 1-palmitoyl-2-linoleoyl-3-acetylglycerol], for which the “phosphorylation of RIPK1/3 and MLKL” value in series [1] (10 or 100 μg/mL before CM or rhHMGB1, after 2 hrs) is “lowered”. Further, the “release of HMGB1 and Hsp90” value in [1] (10 or 100 μg/mL, 72 hrs after CM or rhHMGB1) is recorded as “subsided”. Also, in series [2], the NOAEL at 13 days came out at 500 mg/kg/day. Further, the findings result with NZW rabbit (DRF study, 0, 125, 250, 500 mg/kg) is “No specific findings”. For the same compound, the mortality result with NZW rabbit (DRF study, 250 mg/kg dose group, day 8 of pregnancy, attributed to loss of appetite before dosing) is given as “A single case of death”; with NZW rabbit (definitive study, 0, 125, 250, 500 mg/kg) it was “No dead animals”. For the same compound, in [3] (2-hr incubation, all species and test systems), the “relative radioactivity of total radioactivity” value was 42-67%. Moreover, the “residual EC-18 concentration relative to initial concentration” value in series [3] (1 hr, test systems A, B, C, all species) is not below 50%. Also, the “order of residual EC-18 concentration” value in series [3] (2 hrs) is “human>rat and dog>monkey”. The “residual EC-18 concentration” value in series [3] (2 hrs, all test systems, all species except monkeys) was not below 50%. The “Plasma Protein Binding Rate” value in [4] (1 μM) amounted to 98.8 ± 0.5%. Further, the fraction unbound at 4 hrs, 1 μM in series [4] (rat, plasma, Plasma Protein Binding Rate) is less than 0.01. The “colony-forming units (CFUs) vs other analogs or control groups” value in series [5] was “significantly higher”. Further, the “Enzyme Activity CYP3A4” value was found to be 3.44 ± 0.73 pmol/106 Cells/Min with CYP3A4 (1 μM), 3.11 ± 0.25 pmol/106 Cells/Min in the series with CYP3A4 (10 μM) and 3.61 ± 0.28 pmol/106 Cells/Min in the series on CYP3A4 (100 μM). Besides, the “potential to induce CYP3A4” value in the series with CYP3A4 (up to 100 μM) is listed as “no potential to induce”. Further, at OCT2, the pIC50 was less than 4.49. For the same compound, in the series with CXCL8 (CM-treated cells), the CXCL8 level result is recorded as “decreased in a dose-dependent manner”. In the series on CXCL8 (rhHMGB1-treated cells), the CXCL8 production entry was “modulated”. Also, in [6], the “inducible effects on chromosomal aberration” value is given as “EC-18 didn't have”.
